For 25 compounds, IC50 results are on record in US20230065740A1, “CYCLIN-DEPENDENT KINASE INHIBITORS” (SPV THERAPEUTICS INC., priority 2018, published 2023).

One assay has as its target T1, CDK6-CYCLIND3 (Homo sapiens, UniProt Q00534).
T1 construct: purchased Carna
The experiment in a line: Microfluidic LabChip kinase inhibition assay, CDK6-CyclinD3. It is filed as biochemical. As to conditions: Table 2; 300 μM ATP, 2 nM enzyme; read-out: CDK6 IC50.

Another assay addresses CDK4-CYCLIND1 (Homo sapiens, UniProt P11802). Put plainly: Microfluidic LabChip kinase inhibition assay, CDK4-CyclinD1. As to conditions: CDK4 IC50 (μM), Table 2; 200 μM ATP, 1 nM enzyme.

SMILES strings stand for the structures. pIC50: −log10 of the molar value.

Chain of CDK4-CYCLIND1 (P11802 whole entry): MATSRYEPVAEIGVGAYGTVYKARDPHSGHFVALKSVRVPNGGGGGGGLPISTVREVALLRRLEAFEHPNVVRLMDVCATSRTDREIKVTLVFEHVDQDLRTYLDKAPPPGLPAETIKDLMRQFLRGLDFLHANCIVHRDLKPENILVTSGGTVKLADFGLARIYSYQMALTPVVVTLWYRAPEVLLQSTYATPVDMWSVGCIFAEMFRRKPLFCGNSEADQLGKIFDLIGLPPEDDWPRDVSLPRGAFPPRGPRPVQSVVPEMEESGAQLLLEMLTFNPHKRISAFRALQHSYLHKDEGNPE
Chain of CDK4-CYCLIND1 (P24385 whole entry partner): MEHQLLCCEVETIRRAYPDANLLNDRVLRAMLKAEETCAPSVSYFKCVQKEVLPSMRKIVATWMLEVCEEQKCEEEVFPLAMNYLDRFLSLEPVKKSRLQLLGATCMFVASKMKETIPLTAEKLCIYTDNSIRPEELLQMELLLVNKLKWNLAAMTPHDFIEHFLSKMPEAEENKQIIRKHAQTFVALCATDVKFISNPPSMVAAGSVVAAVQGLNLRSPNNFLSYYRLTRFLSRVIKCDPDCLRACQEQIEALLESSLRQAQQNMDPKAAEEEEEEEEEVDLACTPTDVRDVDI
T1 sequence (Q00534 whole entry): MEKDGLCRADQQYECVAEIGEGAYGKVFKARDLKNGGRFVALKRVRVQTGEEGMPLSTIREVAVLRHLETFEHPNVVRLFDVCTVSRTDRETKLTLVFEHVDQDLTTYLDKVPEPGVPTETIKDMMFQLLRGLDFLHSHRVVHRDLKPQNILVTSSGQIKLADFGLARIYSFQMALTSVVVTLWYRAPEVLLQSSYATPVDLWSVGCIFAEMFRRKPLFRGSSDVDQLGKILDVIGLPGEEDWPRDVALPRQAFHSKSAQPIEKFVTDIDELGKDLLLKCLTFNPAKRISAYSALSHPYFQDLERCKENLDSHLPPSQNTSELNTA
T1 sequence (P30281 whole entry partner): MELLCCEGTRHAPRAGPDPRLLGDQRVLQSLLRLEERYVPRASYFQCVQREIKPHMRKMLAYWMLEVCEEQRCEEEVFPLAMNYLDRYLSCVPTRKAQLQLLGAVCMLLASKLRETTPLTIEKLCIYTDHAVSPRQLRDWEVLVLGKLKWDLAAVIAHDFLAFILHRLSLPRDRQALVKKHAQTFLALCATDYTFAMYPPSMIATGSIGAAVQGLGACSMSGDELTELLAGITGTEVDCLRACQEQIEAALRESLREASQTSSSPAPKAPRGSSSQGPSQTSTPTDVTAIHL
Experimental for CDK4-CYCLIND1: Inhibition assays were performed using microfluidic LabChip 300 Drug Discovery System from Caliper Life Sciences. […] The assay has a total volume of 10 μL consisting of 5 μL of enzyme and buffer and 5 μL of substrate and buffer. The test compounds were diluted in 100% dimethylsulfoxide (DMSO) using 3-fold dilution steps. […] Compounds were tested in a single well for each dilution and the final concentration of DMSO was maintained at 1%.
The assay buffer contained 100 mM HEPES, pH 7.5, 0.01% Triton X-100, 0.1% bovine serum albumin (BSA), 5 mM MgCl2; 1 mM dithiothreitol (DTT), 10 μM sodium orthovanadate, and 10 μM β-glycerophosphate.
The assay was conducted by adding 5 μL of enzyme, adenosine triphosphate (ATP) and buffer to an assay plate. A 100 nL aliquot of the diluted compounds were added to the plate. The assay was initiated by the addition of 5 μL of phosphoenolpyruvate substrate (PEP) in buffer. […] The reaction was terminated by the addition of EDTA. The plates were analyzed using a Caliper LabChip 3000.

Usually pIC50 stands for −log10 of the IC50, conventionally taken in molar units. Broadly, the IC50 is the concentration that inhibits the measured activity by half. A high value points to weaker potency in that assay. For `CC(C)N1CCN(c2ccc(Nc3ncc4c(n3)N(C3CCCC3)C3(CCNC3=O)C4)c(F)c2)CC1` (centres unmarked) [Compound C52, 7′-cyclopentyl-2′-((2-fluoro-4-(4-isopropylpiperazin-1-yl)phenyl)amino)-5′,7′-dihydrospiro[pyrrolidine-3,6′-pyrrolo[2,3-d]pyrimidin]-2-one], on CDK6-CYCLIND3, the pIC50 is under 4.52. Besides, at CDK4-CYCLIND1, the IC50 is over 30 µM.
With `O=C1NCCC12Cc1cnc(Nc3ccc(N4CCNCC4)nc3)nc1N2C1CCCC1` (centres unmarked) [Compound C53, 7′-cyclopentyl-2′-((6-(piperazin-1-yl)pyridin-3-yl)amino)-5′,7′-dihydrospiro[pyrrolidine-3,6′-pyrrolo[2,3-d]pyrimidin]-2-one], at CDK6-CYCLIND3, the negative logarithm of the IC50 (pIC50) was 6.59. Besides, on CDK4-CYCLIND1, the concentration for half-maximal inhibition (IC50) turned out to be 0.0658 µM.
The matching figures for `CN1CCN(c2ccc(Nc3ncc4c(n3)N(C3CCCC3)C3(CCNC3=O)C4)cn2)CC1` (centres unmarked) [Compound C54, 7′-cyclopentyl-2′-((6-(4-methylpiperazin-1-yl)pyridin-3-yl)amino)-5′,7′-dihydrospiro[pyrrolidine-3,6′-pyrrolo[2,3-d]pyrimidin]-2-one]: 6.38 and 0.0926 µM.
`CC(C)N1CCN(c2ccc(Nc3ncc4c(n3)N(C3CCCC3)C3(CCNC3=O)C4)cn2)CC1` (centres unmarked) [Compound C55, 7′-cyclopentyl-2′-((6-(4-isopropylpiperazin-1-yl)pyridin-3-yl)amino)-5′,7′-dihydrospiro[pyrrolidine-3,6′-pyrrolo[2,3-d]pyrimidin]-2-one]: the pIC50 at CDK6-CYCLIND3 was 6.66. This compound came in with a half-maximal inhibitory concentration (IC50) against CDK4-CYCLIND1 of 0.053 µM.
The matching figures for `O=C1NCCC12Cc1cnc(Nc3ccc(C4=CCNCC4)cn3)nc1N2C1CCCC1` (centres unmarked) [Compound C56, 7′-cyclopentyl-2′-((1′,2′,3′,6′-tetrahydro-[3,4′-bipyridin]-6-yl)amino)-5′,7′-dihydrospiro[pyrrolidine-3,6′-pyrrolo[2,3-d]pyrimidin]-2-one]: 6.10 and 0.372 µM.
For `CC(C)N1CC=C(c2ccc(Nc3ncc4c(n3)N(C3CCCC3)C3(CCNC3=O)C4)nc2)CC1` (centres unmarked) [Compound C57, 7′-cyclopentyl-2′-((1′-isopropyl-1′,2′,3′,6′-tetrahydro-[3,4′-bipyridin]-6-yl)amino)-5′,7′-dihydrospiro[pyrrolidine-3,6′-pyrrolo[2,3-d]pyrimidin]-2-one], in that order: 6.02 and 0.387 µM.
On to `O=C1NCCC12Cc1cnc(Nc3ccc(N4CCOCC4)c(F)c3)nc1N2C1CCCC1` (centres unmarked) [Compound C58, 7′-cyclopentyl-2′-((3-fluoro-4-morpholinophenyl)amino)-5′,7′-dihydrospiro[pyrrolidine-3,6′-pyrrolo[2,3-d]pyrimidin]-2-one], for which the pIC50 at CDK6-CYCLIND3 was 6.03. The same compound returned an IC50 against CDK4-CYCLIND1 of 0.222 µM.
As for `CN(C)CCOc1ccc(Nc2ncc3c(n2)N(C2CCCC2)C2(CCNC2=O)C3)cc1` (centres unmarked) [Compound C59, 7′-cyclopentyl-2′-((4-(2-(dimethylamino)ethoxy)phenyl)amino)-5′,7′-dihydrospiro[pyrrolidine-3,6′-pyrrolo[2,3-d]pyrimidin]-2-one], the pIC50 on CDK6-CYCLIND3 is 6.20. On CDK4-CYCLIND1, this compound came in with an IC50 of 0.142 µM.
As for `CN(C)CCOc1ccc(Nc2ncc3c(n2)N(C2CCCC2)C2(CCNC2=O)C3)nc1` (centres unmarked) [Compound C60, 7′-cyclopentyl-2′-((5-(2-(dimethylamino)ethoxy)pyridin-2-yl)amino)-5′,7′-dihydrospiro[pyrrolidine-3,6′-pyrrolo[2,3-d]pyrimidin]-2-one], the pIC50 on CDK6-CYCLIND3 was 5.47. On CDK4-CYCLIND1, this compound showed an IC50 of 1.5 µM.
For `CN(C)CCOc1ccc(Nc2ncc3c(n2)N(C2CCCC2)C2(CCNC2=O)C3)cn1` (centres unmarked) [Compound C61, 7′-cyclopentyl-2′-((6-(2-(dimethylamino)ethoxy)pyridin-3-yl)amino)-5′,7′-dihydrospiro[pyrrolidine-3,6′-pyrrolo[2,3-d]pyrimidin]-2-one], in that order: 6.10 and 0.19 µM.
The matching figures for `COc1cc(Nc2ncc3c(n2)N(C2CCCC2)C2(CCNC2=O)C3)ccc1N1CCN(C(C)C)CC1` (centres unmarked) [Compound C62, 7′-cyclopentyl-2′-((4-(4-isopropylpiperazin-1-yl)-3-methoxyphenyl)amino)-5′,7′-dihydrospiro[pyrrolidine-3,6′-pyrrolo[2,3-d]pyrimidin]-2-one]: 5.71 and 0.288 µM.
`Cc1cc(Nc2ncc3c(n2)N(C2CCCC2)C2(CCNC2=O)C3)ccc1N1CCN(C(C)C)CC1` (centres unmarked) [Compound C63, 7′-cyclopentyl-2′-((4-(4-isopropylpiperazin-1-yl)-3-methylphenyl)amino)-5′,7′-dihydrospiro[pyrrolidine-3,6′-pyrrolo[2,3-d]pyrimidin]-2-one]: the pIC50 on CDK6-CYCLIND3 was 6.05. This compound also registered an IC50 at CDK4-CYCLIND1 of 0.172 µM.
In the case of `CN(C)C(=O)c1cc2cnc(Nc3ccc(N4CCN(C#N)CC4)cn3)nc2n1C1CCCC1` [Compound C64, 2-((5-(4-cyanopiperazin-1-yl)pyridin-2-yl)amino)-7-cyclopentyl-N,N-dimethyl-7H-pyrrolo[2,3-d]pyrimidine-6-carboxamide], on CDK6-CYCLIND3, the negative logarithm of the IC50 (pIC50) was under 4.52. The compound also displayed a concentration for half-maximal inhibition (IC50) against CDK4-CYCLIND1 of over 30 µM.
For `CN1C(=O)CC2(Cc3cnc(Nc4ccc(N5CCNCC5)cn4)nc3N2C2CCCC2)C1=O` (centres unmarked) [Compound C65, 7′-cyclopentyl-1-methyl-2′-((5-(piperazin-1-yl)pyridin-2-yl)amino)-5′,7′-dihydrospiro[pyrrolidine-3,6′-pyrrolo[2,3-d]pyrimidine]-2,5-dione], in that order: 4.81 and 12.3 µM.
`CN1CCN(c2ccc(Nc3ncc4c(n3)N(C3CCCC3)C3(CC(=O)N(C)C3=O)C4)nc2)CC1` (centres unmarked) [Compound C66, 7′-cyclopentyl-1-methyl-2′-((5-(4-methylpiperazin-1-yl)pyridin-2-yl)amino)-5′,7′-dihydrospiro[pyrrolidine-3,6′-pyrrolo[2,3-d]pyrimidine]-2,5-dione]: the pIC50 on CDK6-CYCLIND3 is under 4.52. Moreover, the half-inhibitory concentration (IC50) against CDK4-CYCLIND1 came to 29.8 µM.
For `CC(C)N1CCN(c2ccc(Nc3ncc4c(n3)N(C3CCCC3)C3(CC(=O)N(C)C3=O)C4)nc2)CC1` (centres unmarked) [Compound C67, 7′-cyclopentyl-2′-((5-(4-isopropylpiperazin-1-yl)pyridin-2-yl)amino)-1-methyl-5′,7′-dihydrospiro[pyrrolidine-3,6′-pyrrolo[2,3-d]pyrimidine]-2,5-dione], in that order: under 4.52 and 26.7 µM.
As for `CN1C(=O)CC2(Cc3cnc(Nc4ccc(N5CCNCC5)cc4)nc3N2C2CCCC2)C1=O` (centres unmarked) [Compound C68, 7′-cyclopentyl-1-methyl-2′-((4-(piperazin-1-yl)phenyl)amino)-5′,7′-dihydrospiro[pyrrolidine-3,6′-pyrrolo[2,3-d]pyrimidine]-2,5-dione], the pIC50 on CDK6-CYCLIND3 is 5.18. This compound also had a half-maximal inhibitory concentration (IC50) on CDK4-CYCLIND1 of 2.49 µM.
The matching figures for `CN1CCN(c2ccc(Nc3ncc4c(n3)N(C3CCCC3)C3(CC(=O)N(C)C3=O)C4)cc2)CC1` (centres unmarked) [Compound C69, 7′-cyclopentyl-1-methyl-2′-((4-(4-methylpiperazin-1-yl)phenyl)amino)-5′,7′-dihydrospiro[pyrrolidine-3,6′-pyrrolo[2,3-d]pyrimidine]-2,5-dione]: 5.55 and 1.08 µM.
The matching figures for `CC(C)N1CCN(c2ccc(Nc3ncc4c(n3)N(C3CCCC3)C3(CC(=O)N(C)C3=O)C4)cc2)CC1` (centres unmarked) [Compound C70, 7′-cyclopentyl-2′-((4-(4-isopropylpiperazin-1-yl)phenyl)amino)-1-methyl-5′,7′-dihydrospiro[pyrrolidine-3,6′-pyrrolo[2,3-d]pyrimidine]-2,5-dione]: 6.46 and 0.159 µM.
The matching figures for `CN1C(=O)CC2(Cc3cnc(Nc4ccc(N5CCNCC5)c(F)c4)nc3N2C2CCCC2)C1=O` (centres unmarked) [Compound C71, 7′-cyclopentyl-2′-((3-fluoro-4-(piperazin-1-yl)phenyl)amino)-1-methyl-5′,7′-dihydrospiro[pyrrolidine-3,6′-pyrrolo[2,3-d]pyrimidine]-2,5-dione]: 4.93 and 4.94 µM.
As for `CN1CCN(c2ccc(Nc3ncc4c(n3)N(C3CCCC3)C3(CC(=O)N(C)C3=O)C4)cc2F)CC1` (centres unmarked) [Compound C72, 7′-cyclopentyl-2′-((3-fluoro-4-(4-methylpiperazin-1-yl)phenyl)amino)-1-methyl-5′,7′-dihydrospiro[pyrrolidine-3,6′-pyrrolo[2,3-d]pyrimidine]-2,5-dione], the negative-log IC50 (pIC50) on CDK6-CYCLIND3 was 4.86. At CDK4-CYCLIND1, this compound had a half-maximal inhibitory concentration (IC50) of 2.53 µM.
The matching figures for `CC(C)N1CCN(c2ccc(Nc3ncc4c(n3)N(C3CCCC3)C3(CC(=O)N(C)C3=O)C4)cc2F)CC1` (centres unmarked) [Compound C73, 7′-cyclopentyl-2′-((3-fluoro-4-(4-isopropylpiperazin-1-yl)phenyl)amino)-1-methyl-5′,7′-dihydrospiro[pyrrolidine-3,6′-pyrrolo[2,3-d]pyrimidine]-2,5-dione]: 5.01 and 1.94 µM.
For `O=C1CC2(Cc3cnc(Nc4ccc(N5CCNCC5)cn4)nc3N2C2CCCC2)C(=O)N1` (centres unmarked) [Compound C74, 7′-cyclopentyl-2′-((5-(piperazin-1-yl)pyridin-2-yl)amino)-5′,7′-dihydrospiro[pyrrolidine-3,6′-pyrrolo[2,3-d]pyrimidine]-2,5-dione], the negative logarithm of the IC50 (pIC50) on CDK6-CYCLIND3 is 4.07. The IC50 against CDK4-CYCLIND1 was 22.7 µM.
The matching figures for `CN1CCN(c2ccc(Nc3ncc4c(n3)N(C3CCCC3)C3(CC(=O)NC3=O)C4)nc2)CC1` (centres unmarked) [Compound C75, 7′-cyclopentyl-2′-((5-(4-methylpiperazin-1-yl)pyridin-2-yl)amino)-5′,7′-dihydrospiro[pyrrolidine-3,6′-pyrrolo[2,3-d]pyrimidine]-2,5-dione]: 7.46 and 0.0203 µM.
For `CC(C)N1CCN(c2ccc(Nc3ncc4c(n3)N(C3CCCC3)C3(CC(=O)NC3=O)C4)nc2)CC1` (centres unmarked) [Compound C76, 7′-cyclopentyl-2′-((5-(4-isopropylpiperazin-1-yl)pyridin-2-yl)amino)-5′,7′-dihydrospiro[pyrrolidine-3,6′-pyrrolo[2,3-d]pyrimidine]-2,5-dione], in that order: 6.86 and 0.103 µM.
